Test results reported in ChEMBL document CHEMBL1201862, “PubChem BioAssay data set” (2004).
Activity calls are given as the source filed them.

Tests used:
[1] = target: Dual specificity protein phosphatase 3 (Homo sapiens, UniProt P51452); assay: VHR1 inhibitor Ki determination, SAR follow-up, biochemical, colorimetric (AID 2004)
[2] = inhibitors of intracellular T. cruzi replication, confirmation, NIH3T3 host cells, beta-gal luminescence (AID 2044); assay type: functional, cell-based;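 also: intracellular parasites grown in NIH/3T3 mouse fibroblasts as host cells; luminescent beta-galactosidase reporter signal from transgenic T. cruzi replicating inside host cells; inhibitors lower the luminescence signal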
[3] = microbe, parasite or virus in culture; assay type: functional; conditions: Mycobacterium tuberculosis
[4] = cytotoxicity toward NIH3T3 fibroblasts, dose response, counter-screen, cell-based, ATP luminescence, mouse fibroblasts (AID 2010); assay type: functional;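 also: cells exposed to compound for about 90 hours before reading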
Interleukin-8 [5] = target: T1, Interleukin-8 (Homo sapiens, UniProt P10145); assay: SAR analysis of Tumor necrosis factor alpha (TNF-alpha) induced IL-8 secretion in MCF-7/NOD1 cells - Set 2. [Related pubchem assays (depositor defined):AID1575, AID2250, AID2260]; assay type: functional, cell-based
T1 sequence (P10145 whole entry): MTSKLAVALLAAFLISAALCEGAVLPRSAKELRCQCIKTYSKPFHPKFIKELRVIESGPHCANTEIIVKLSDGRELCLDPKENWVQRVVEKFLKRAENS

Interleukin-8 [6] = target: T1, Interleukin-8; assay: SAR analysis of GM-Tri-DAP induced IL-8 secretion in MCF-7/NOD1 cells - Set 2. [Related pubchem assays (depositor defined):AID1575, AID1578, AID2333]; assay type: functional, cell-based
Tumor necrosis factor = Tumor necrosis factor (Homo sapiens, UniProt P01375); assay: TNFa-triggered NF-kB activation inhibitors, SAR follow-up, cell-based, revised (AID 2337); assay type: functional
[7] = THP-1 cell cytotoxicity, dose response, cytotoxicity control for non-replicating M. tuberculosis project (AID 489025); assay type: functional
[8] = target: Nucleotide-binding oligomerization domain-containing protein 1 (Homo sapiens, UniProt Q9Y239); assay: NOD1 signaling inhibitors, SAR follow-up, revised (AID 2333); assay type: functional
[9] = HepG2 cell cytotoxicity, dose response, cytotoxicity control for non-replicating M. tuberculosis project (AID 489018); assay type: functional; conditions: Mycobacterium tuberculosis
[10] = Vero E6 cell cytotoxicity, dose response, cytotoxicity control for non-replicating M. tuberculosis project, secondary assay (AID 492998); assay type: functional, VeroE6; conditions: Vero C1008
[11] = target: Nucleotide-binding oligomerization domain-containing protein 2 (Homo sapiens, UniProt Q9HC29); assay: PubChem AID 2334; assay type: functional
cells [12] = assay type: functional
HEK293 [13] = assay: cells; conditions: Homo sapiens
[14] = target: T2, Neuropeptides B/W receptor type 1 (Homo sapiens, UniProt P48145); assay: Fluorescence-based dose response cell-based high throughput screening assay to identify antagonists of the G-protein coupled receptor 7 (GPR7). [Related pubchem assays: 1952 (Screening assay (GPR7 antagonists).), 1880 (Summary AID.)]; assay type: functional
T2 sequence (P48145 whole entry): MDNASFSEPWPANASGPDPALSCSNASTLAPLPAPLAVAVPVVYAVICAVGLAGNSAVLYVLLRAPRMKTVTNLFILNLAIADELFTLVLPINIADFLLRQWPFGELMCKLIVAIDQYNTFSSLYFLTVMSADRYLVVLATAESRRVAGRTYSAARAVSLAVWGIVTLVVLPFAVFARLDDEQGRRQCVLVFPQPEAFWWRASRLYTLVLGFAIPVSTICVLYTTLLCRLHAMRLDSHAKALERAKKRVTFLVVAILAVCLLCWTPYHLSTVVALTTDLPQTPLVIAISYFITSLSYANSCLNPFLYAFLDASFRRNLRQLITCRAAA

[15] = target: Melanin-concentrating hormone receptor 1 (Homo sapiens, UniProt Q99705); assay: Fluorescence-based counterscreen for antagonists of the G-protein coupled receptor 7 (GPR7): cell-based high throughput dose response assay to identify antagonists of the melanin-concentrating hormone receptor 1 (MCHR1).; assay type: functional
Bcl-2-like protein 10 = target: T3, Bcl-2-like protein 10 (Homo sapiens, UniProt Q9HD36); assay: displacers of TR3 peptide from Bcl-B, primary screen, selectivity assay for Bfl-1 inhibitor project, biochemical, fluorescence polarization, FITC-TR3 peptide (AID 748);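 also: fluorescence polarization from a fluorescein-labelled TR3 peptide binding purified Bcl-B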
T3 sequence (Q9HD36 whole entry): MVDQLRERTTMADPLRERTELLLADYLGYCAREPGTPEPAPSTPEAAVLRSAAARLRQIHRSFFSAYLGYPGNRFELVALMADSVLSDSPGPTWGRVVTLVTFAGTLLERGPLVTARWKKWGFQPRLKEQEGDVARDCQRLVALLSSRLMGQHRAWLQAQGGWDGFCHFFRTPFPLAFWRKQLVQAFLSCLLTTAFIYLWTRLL

HEK293 [16] = assay: PMA/Ionomycin induced NF-kB luciferase assay in 293- NF-kB-Luc stable cells. [Related pubchem assays: 1299, 1270, 1295, 1375, 1287, 1281, 1293, 1291, 1289, 1280, 465, 1364, 1282, 1372, 1365, 1370, 1367, 1366, 1269, 1373, 1292, 1290, 1302, 1371, 1283, 1271, 1294, 1374, 1368, 1369 ]; assay type: functional, cell-based; conditions: Homo sapiens
[17] = target: T4, Luciferin 4-monooxygenase (Photinus pyralis, UniProt P08659); assay: In vitro luciferase assay using purified luciferase. [Related pubchem assays: 1299, 1270, 1295, 1375, 1287, 1281, 1293, 1291, 1289, 1280, 465, 1364, 1282, 1372, 1365, 1370, 1367, 1366, 1266, 1373, 1292, 1290, 1302, 1371, 1283, 1271, 1294, 1374, 1368, 1369 ]
HEK293 [18] = assay: Cytotoxicity assay in HEK293 cells. [Related pubchem assays (depositor defined):AID1266, AID1269, AID1270, AID1271, AID1280, AID1281, AID1282, AID1283, AID1287, AID1289, AID1290, AID1291, AID1292, AID1293, AID1294, AID1295, AID1299, AID1302, AID1364, AID1365, AID1366, AID1367, AID1369, AID1370, AID1371, AID1372, AID1373, AID1374, AID1375, AID1384 …; assay type: functional, cell-based; conditions: Homo sapiens
HEK293 [19] = assay: TNF Induced NF-kB Luciferase in 293-NF-kB-Luc Stable Cells. [Related pubchem assays: 1266, 1299, 1269, 1373, 1292, 1290, 1302, 1371, 1283, 1270, 1295, 1271, 1375, 1294, 1374, 1281, 1293, 1291, 1289, 1280, 465, 1368, 1364, 1282, 1372, 1365, 1369, 1370, 1367, 1366 ]; assay type: functional, cell-based; conditions: Homo sapiens
Beta-galactosidase = Beta-galactosidase (Escherichia coli, UniProt Q8VNN2); assay: beta-galactosidase enzyme inhibitors and activators, dose response, artefact control for CCR6 antagonist project, biochemical, E. coli enzyme, set 3 (AID 504712); assay type: functional
Hexokinase HKDC1 = Hexokinase HKDC1 (Homo sapiens, UniProt Q2TB90); assay: HKDC1 hexokinase inhibitors, dose response, biochemical, W721R variant (AID 504729); assay type: functional
Genome polyprotein = Genome polyprotein (dengue virus type 2, UniProt P29990); assay: Dengue-2 NS5 methyltransferase inhibitors, primary screen, biochemical, confirmation dose response (AID 588689); assay type: functional
[20] = Fluorescence-based cell-based high throughput dose response assay for inhibitors of the interaction of nucleotide-binding oligomerization domain containing 2 (NOD2) and the receptor-interacting serine-threonine kinase 2 (RIPK2).; assay type: functional; conditions: Homo sapiens
Beta Lactamase = Beta Lactamase (Pseudomonas aeruginosa, UniProt Q932Y6); assay: beta-lactamase reporter inhibitor potency, dose response, artefact control for NOD2-RIPK2 interaction inhibitor project, BLA reporter cells, FRET fluorescence (AID 651552); assay type: functional, cell-based
[21] = THP-1 cell cytotoxicity, dose response, cytotoxicity control for Vif-APOBEC3G degradation inhibitor project, THP-1 cells (AID 1117359); assay type: functional; conditions: Human immunodeficiency virus 1, THP-1
[22] = target: Acylamino-acid-releasing enzyme (Homo sapiens, UniProt P13798); assay: PME-1 inhibitor potency by in-gel ABPP, dose response, selectivity assay for PME-1 inhibitor project, cell lysate, mouse brain cytosol, FP-rhodamine, panel member APEH Assay Panel member description: Inhibition of N-acylaminoacyl-peptide hydrolase (APEH) (anti-target) (AID 2366)
[23] = target: T5, Voltage-gated N-type calcium channel alpha-1B subunit/Amyloid beta A4 precursor protein-binding family A member 1 (Homo sapiens, UniProt Q00975+Q02410); assay: disruptors of Mint-PDZ/N-type channel peptide interaction – biochemical, HTRF, set 2, SAR follow-up (AID 434980); assay type: functional
[24] = target: T5, Voltage-gated N-type calcium channel alpha-1B subunit/Amyloid beta A4 precursor protein-binding family A member 1; assay: disruptors of Mint-PDZ/N-type channel peptide interaction – biochemical, HTRF, SAR follow-up (AID 2489); assay type: functional
[25] = target: T2, Neuropeptides B/W receptor type 1; assay: GPR7 antagonist potency, late-stage follow-up, cell-based, fluorescence, dose response (AID 463251); assay type: functional
[26] = target: T4, Luciferin 4-monooxygenase; assay: firefly luciferase enzyme inhibitors, dose response, biochemical, luminescence (AID 1891)
[27] = Luminescence Cell-Based Dose Confirmation HTS to Identify Inhibitors of Platelet Dense Granule Release. [Related pubchem assays: 1663 (Primary HTS), 1678 (Summary of Project)]; assay type: functional
[28] = target: Induced myeloid leukemia cell differentiation protein Mcl-1 (Homo sapiens, UniProt Q07820); assay type: functional
[29] = target: NACHT, LRR and PYD domains-containing protein 3 (Homo sapiens, UniProt Q96P20); assay: NALP3 inhibitors in yeast, dose response, luminescent (AID 488799); assay type: functional
[30] = target: Neurotensin receptor type 1 (Homo sapiens, UniProt P30989); assay type: functional;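 also: Image-based confirmatory dose-response assay measuring agonist activity at NTR1; NTR1-expressing U2OS osteosarcoma cells imaged for beta-arrestin GFP spot formation; agonist potency where compounds increase beta-arrestin recruitment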
[31] = target: T6, Oxysterols receptor LXR-beta (Homo sapiens, UniProt P55055); assay type: functional, cell-based;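 also: Cell-based luminescence dose-response assay of agonist activity at LXR, run as a confirmatory counterscreen to a daf-12 agonist screen; HEK293 cells with Gal4-LXR fusion and GAL4-driven luciferase reporter; agonist potency from rising luciferase signal of a Gal4-LXR reporter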
T6 sequence (P55055 whole entry): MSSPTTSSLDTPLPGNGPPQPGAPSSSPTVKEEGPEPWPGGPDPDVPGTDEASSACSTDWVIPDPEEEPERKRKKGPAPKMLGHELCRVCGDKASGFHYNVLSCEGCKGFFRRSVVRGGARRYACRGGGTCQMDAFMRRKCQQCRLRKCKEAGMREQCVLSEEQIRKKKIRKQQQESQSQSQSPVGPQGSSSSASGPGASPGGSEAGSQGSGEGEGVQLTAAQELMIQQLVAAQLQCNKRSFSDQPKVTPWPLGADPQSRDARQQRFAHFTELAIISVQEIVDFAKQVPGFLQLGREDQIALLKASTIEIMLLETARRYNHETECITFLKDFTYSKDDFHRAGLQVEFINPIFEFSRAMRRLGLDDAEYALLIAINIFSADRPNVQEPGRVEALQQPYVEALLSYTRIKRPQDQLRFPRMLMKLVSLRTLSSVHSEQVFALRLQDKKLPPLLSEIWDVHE

cells [32] = assay: cells

T5 sequence (Q00975 whole entry): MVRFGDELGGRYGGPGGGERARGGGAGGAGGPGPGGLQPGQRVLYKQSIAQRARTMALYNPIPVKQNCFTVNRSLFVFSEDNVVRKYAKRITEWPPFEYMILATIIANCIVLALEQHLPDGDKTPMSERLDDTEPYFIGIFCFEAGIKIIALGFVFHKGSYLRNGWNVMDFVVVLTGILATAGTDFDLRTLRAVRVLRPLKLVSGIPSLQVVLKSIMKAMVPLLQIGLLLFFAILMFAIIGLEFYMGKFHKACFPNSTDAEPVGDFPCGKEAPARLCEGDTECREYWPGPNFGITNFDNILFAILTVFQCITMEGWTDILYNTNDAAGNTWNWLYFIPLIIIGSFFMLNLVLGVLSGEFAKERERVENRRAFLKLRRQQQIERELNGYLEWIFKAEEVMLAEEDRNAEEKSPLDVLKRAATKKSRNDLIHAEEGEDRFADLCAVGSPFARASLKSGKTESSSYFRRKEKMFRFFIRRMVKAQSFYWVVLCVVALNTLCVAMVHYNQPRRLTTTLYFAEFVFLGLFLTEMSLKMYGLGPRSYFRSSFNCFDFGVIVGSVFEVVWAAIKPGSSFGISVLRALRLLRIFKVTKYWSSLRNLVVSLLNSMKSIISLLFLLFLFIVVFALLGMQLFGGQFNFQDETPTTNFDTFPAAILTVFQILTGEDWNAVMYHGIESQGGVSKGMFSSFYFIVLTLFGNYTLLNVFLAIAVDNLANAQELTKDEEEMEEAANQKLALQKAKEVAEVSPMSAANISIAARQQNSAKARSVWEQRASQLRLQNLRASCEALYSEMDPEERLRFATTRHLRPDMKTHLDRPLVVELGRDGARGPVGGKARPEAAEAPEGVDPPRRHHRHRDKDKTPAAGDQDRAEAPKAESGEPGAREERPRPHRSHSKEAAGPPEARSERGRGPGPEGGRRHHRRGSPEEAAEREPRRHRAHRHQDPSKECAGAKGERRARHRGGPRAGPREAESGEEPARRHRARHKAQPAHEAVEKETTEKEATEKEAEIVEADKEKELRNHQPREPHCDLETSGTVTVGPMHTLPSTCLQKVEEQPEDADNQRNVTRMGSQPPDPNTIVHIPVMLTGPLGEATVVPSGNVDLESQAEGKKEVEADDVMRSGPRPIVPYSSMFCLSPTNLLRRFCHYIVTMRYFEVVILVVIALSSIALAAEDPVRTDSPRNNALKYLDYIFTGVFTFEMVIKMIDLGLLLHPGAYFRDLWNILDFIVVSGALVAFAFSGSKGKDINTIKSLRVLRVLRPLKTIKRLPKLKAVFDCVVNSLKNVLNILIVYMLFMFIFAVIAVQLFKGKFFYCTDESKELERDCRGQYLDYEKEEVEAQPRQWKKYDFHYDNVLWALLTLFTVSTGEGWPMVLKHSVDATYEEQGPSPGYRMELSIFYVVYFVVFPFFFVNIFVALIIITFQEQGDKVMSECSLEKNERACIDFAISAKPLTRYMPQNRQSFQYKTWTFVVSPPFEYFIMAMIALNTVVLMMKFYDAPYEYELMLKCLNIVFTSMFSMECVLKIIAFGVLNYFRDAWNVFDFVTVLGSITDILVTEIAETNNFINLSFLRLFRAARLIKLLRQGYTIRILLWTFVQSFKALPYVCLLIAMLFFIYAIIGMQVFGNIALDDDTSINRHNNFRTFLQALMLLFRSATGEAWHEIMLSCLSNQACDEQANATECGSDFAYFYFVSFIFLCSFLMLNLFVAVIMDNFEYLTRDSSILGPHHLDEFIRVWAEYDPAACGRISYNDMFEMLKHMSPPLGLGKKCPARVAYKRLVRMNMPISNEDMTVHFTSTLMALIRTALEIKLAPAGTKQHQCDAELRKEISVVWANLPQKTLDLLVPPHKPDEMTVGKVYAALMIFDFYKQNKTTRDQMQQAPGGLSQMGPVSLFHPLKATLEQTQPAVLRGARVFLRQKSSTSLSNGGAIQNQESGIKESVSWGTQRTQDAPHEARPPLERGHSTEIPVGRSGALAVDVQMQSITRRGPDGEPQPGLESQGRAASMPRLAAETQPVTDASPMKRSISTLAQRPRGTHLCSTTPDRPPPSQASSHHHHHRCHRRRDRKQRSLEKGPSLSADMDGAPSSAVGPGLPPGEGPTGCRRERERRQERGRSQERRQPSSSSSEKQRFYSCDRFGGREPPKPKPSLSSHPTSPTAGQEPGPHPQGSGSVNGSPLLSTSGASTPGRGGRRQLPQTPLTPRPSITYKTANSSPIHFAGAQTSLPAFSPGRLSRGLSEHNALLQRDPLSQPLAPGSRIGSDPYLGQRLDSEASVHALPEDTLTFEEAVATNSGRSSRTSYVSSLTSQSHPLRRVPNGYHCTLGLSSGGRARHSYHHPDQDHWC
T5 sequence (Q02410 whole entry): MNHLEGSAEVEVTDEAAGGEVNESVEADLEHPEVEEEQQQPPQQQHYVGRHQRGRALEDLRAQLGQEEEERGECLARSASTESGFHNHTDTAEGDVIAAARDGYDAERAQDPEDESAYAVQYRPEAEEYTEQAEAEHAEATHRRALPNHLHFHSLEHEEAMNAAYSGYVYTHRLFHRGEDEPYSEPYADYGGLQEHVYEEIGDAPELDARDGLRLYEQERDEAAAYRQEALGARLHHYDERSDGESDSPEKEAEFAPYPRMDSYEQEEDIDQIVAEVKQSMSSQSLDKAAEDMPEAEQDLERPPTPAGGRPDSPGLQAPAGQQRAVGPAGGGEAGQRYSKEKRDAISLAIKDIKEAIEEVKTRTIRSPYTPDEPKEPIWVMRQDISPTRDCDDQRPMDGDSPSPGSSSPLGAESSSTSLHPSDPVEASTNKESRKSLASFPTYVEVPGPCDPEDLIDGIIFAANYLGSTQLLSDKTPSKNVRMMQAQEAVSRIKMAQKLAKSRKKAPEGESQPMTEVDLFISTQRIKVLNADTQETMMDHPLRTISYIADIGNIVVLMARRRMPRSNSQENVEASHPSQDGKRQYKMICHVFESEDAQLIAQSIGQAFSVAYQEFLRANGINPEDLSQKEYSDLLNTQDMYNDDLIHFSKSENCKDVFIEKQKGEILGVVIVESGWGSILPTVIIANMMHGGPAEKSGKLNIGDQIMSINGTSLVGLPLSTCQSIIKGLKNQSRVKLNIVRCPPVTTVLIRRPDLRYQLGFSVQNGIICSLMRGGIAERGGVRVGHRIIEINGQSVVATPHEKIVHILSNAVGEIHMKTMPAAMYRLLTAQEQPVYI
T4 sequence (P08659 whole entry): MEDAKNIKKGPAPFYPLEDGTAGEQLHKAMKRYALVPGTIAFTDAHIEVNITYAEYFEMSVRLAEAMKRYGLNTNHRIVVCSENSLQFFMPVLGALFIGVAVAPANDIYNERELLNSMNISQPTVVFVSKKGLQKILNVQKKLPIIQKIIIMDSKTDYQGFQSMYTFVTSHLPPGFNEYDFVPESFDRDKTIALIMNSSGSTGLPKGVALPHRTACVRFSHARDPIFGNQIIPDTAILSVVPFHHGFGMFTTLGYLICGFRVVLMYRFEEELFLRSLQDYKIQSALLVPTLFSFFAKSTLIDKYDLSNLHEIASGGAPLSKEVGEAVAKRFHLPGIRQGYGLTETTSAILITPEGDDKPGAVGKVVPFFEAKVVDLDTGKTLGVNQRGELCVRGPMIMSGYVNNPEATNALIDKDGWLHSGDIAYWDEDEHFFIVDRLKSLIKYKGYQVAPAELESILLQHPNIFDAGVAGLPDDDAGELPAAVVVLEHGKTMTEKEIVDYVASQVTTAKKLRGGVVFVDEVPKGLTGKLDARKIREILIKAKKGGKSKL
Sequence of Melanin-concentrating hormone receptor 1 (Q99705 whole entry): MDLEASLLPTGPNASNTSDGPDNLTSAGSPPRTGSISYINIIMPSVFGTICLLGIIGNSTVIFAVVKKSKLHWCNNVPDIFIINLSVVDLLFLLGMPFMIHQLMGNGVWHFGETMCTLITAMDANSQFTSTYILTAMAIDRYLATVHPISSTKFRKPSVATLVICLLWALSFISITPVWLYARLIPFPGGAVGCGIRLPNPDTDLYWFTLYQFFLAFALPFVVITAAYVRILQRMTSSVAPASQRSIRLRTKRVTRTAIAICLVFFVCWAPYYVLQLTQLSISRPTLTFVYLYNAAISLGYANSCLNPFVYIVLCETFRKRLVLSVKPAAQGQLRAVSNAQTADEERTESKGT
Sequence of Dual specificity protein phosphatase 3 (P51452 whole entry): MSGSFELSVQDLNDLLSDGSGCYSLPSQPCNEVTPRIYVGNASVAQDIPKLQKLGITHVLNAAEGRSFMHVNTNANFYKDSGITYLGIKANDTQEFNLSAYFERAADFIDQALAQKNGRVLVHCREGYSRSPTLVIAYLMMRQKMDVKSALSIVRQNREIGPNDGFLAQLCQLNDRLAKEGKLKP
Sequence of Neurotensin receptor type 1 (P30989 whole entry, the tested form may be a part): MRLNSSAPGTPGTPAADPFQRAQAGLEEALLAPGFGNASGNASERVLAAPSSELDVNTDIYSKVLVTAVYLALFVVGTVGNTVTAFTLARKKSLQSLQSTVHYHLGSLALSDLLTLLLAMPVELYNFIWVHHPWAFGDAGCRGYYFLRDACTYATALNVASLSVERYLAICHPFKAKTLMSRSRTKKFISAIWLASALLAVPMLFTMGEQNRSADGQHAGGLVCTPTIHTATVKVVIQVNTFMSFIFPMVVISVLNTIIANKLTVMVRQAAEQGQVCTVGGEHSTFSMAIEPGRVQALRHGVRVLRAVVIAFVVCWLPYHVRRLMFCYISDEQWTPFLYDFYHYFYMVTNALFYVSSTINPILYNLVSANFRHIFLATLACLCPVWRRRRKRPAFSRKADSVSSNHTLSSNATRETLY
Sequence of Induced myeloid leukemia cell differentiation protein Mcl-1 (Q07820 whole entry, the tested form may be a part): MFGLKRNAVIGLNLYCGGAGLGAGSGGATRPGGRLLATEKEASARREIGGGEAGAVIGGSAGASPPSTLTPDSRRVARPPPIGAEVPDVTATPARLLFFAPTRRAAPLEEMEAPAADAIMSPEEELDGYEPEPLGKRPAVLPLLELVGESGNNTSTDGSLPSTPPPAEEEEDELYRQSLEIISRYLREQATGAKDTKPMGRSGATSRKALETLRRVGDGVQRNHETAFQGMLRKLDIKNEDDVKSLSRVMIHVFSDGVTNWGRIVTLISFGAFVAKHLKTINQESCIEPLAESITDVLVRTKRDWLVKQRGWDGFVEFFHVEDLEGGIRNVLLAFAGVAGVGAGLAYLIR

SMILES: Cc1cc(Br)c(-c2ccc(/C=C3/NC(=S)NC3=O)o2)cc1C
- Ki [1]: 3.19 µM (active)

SMILES: CCC(=O)Nc1nc2ccccc2n1Cc1ccc(Cl)cc1
- EC50 [2]: 1.1 µM (active)
- CC50 [3]: 33.9 µM (active)
- EC50 [4]: 8.28 µM (active)
- IC50 (Interleukin-8 [5]): > 25 µM (inactive)
- IC50 (Interleukin-8 [6]): > 25 µM (inactive)
- IC50 (Tumor necrosis factor): > 20 µM (inactive)
- CC50 [7]: > 40 µM (active)
- IC50 [8]: 12.3 µM (active)
- CC50 [9]: > 20 µM (active)
- CC50 [10]: 11 µM (active)
- IC50 [11]: 15.8 µM (active)
- IC50 (cells [12]): 0.29 µM (active)
- IC50 (HEK293 [13]): > 20 µM (inactive)

SMILES: CN(C)C1=NC[C@H](Cc2ccccc2)N1CC1CCC(C(C)(C)C)CC1 (stereo partly drawn)
- IC50 [14]: 7.86 µM (active)
- IC50 [15]: 10.6 µM (not active)

SMILES: CC(=O)C1=C(O)C(=O)N(Cc2ccccc2)C1c1ccco1 (stereo not drawn)
- IC50 (Bcl-2-like protein 10): > 100 µM (inactive)

SMILES: Cc1oc2cc3c(C(=O)OCCN(C)C)c(C)oc3cc2c1C(=O)OCCN(C)C
- EC50 (HEK293 [16]): 0.781 µM (active)
- EC50 [17]: > 8 µM (not active)
- EC50 (HEK293 [18]): 13.9 µM (inactive)
- EC50 (HEK293 [19]): 0.11 µM (active)

SMILES: Cc1[nH]c2ccccc2c1C1=CC(=O)C=CC1=O
- IC50 (Beta-galactosidase): > 66.6 µM (inactive)
- IC50 (Hexokinase HKDC1): 3.4 µM (active)
- IC50 (Genome polyprotein): 17.7 µM (active)
- IC50 [20]: 3.46 µM (active)
- IC50 (Beta Lactamase): 19.9 µM (inactive)
- CC50 [21]: > 40 µM (active)

SMILES: CC(C)(C)S(=O)(=O)/C(C#N)=C/c1cccn1S(=O)(=O)c1ccccc1
- IC50 [22]: > 50 µM (inactive)

SMILES: COc1ccc(CNC(=O)COC(=O)c2cccc3ccccc23)cc1
- IC50 [23]: 26.4 µM (active)
- IC50 [24]: > 56.8 µM (inactive)

SMILES: CCOc1ccc(CCOc2c(Cl)cnn(-c3ccccc3)c2=O)cc1OCC
- IC50 [25]: > 20 µM (inactive)

SMILES: Oc1c(/C=N/c2ccccn2)sc2ccccc12
- EC50 [26]: 1.8 µM (active)
- EC50 [27]: 11.5 µM (active)
- IC50 [28]: 1.64 µM (active)
- IC50 [29]: 10.2 µM (active)

SMILES: O=C(N/N=C/c1cn(-c2ccccc2)nc1-c1cc2ccccc2o1)c1cccnc1
- EC50 [30]: > 40 µM (inactive)
- EC50 [31]: > 67.5 µM (inactive)
- EC50 (cells [32]): > 67.5 µM (inactive)
